Source: ChEMBL document CHEMBL2176983, “Hispidin analogue davallialactone attenuates carbon tetrachloride-induced hepatotoxicity in mice” (J Nat Prod, 2012)
Calls of active or inactive are those of the source. No cut-off for these calls is given here.

How the values were obtained:
Format in all cases: functional, organism-based
Mus musculus [1] = experiment: Hepatoprotective activity in CCL4-induced FVB mouse assessed as reduction in liver necrosis at 10 mg/kg, sc administered for 3 consecutive days prior CCL4 challenge measured 12 hrs post challenge by hematoxylin/eosin-staining method relative to control; set-up: dose 10 mg/kg
Mus musculus [2] = experiment: Hepatoprotective activity in FVB mouse assessed as reduction of CCL4-induced increase of serum AST level at 2.5 to 10 mg/kg, sc administered for 3 consecutive days prior CCL4 challenge measured 12 to 24 hrs post challenge
Mus musculus [3] = experiment: Hepatoprotective activity in FVB mouse assessed as reduction of CCL4-induced increase of serum ALT level at 2.5 to 10 mg/kg, sc administered for 3 consecutive days prior CCL4 challenge measured 12 to 24 hrs post challenge
Mus musculus [4] = experiment: Hepatoprotective activity in CCL4-induced FVB mouse assessed as reduction in liver necrosis at 2.5 to 10 mg/kg, sc administered for 3 consecutive days prior CCL4 challenge measured 12 to 24 hrs post challenge by hematoxylin/eosin-staining method relative to control
Mus musculus [5] = experiment: Hepatoprotective activity in CCL4-induced FVB mouse assessed as decrease in COX2 expression at 2.5 to 10 mg/kg, sc administered for 3 consecutive days prior CCL4 challenge measured 12 to 24 hrs post challenge by Western blot method relative to control
Mus musculus [6] = experiment: Hepatoprotective activity in CCL4-induced FVB mouse assessed as effect on CYP2E1 expression at 2.5 to 10 mg/kg, sc administered for 3 consecutive days prior CCL4 challenge measured 12 to 24 hrs post challenge by Western blot method relative to control
Mus musculus [7] = experiment: Hepatoprotective activity in CCL4-induced FVB mouse assessed as increase in HO-1 expression at 2.5 to 10 mg/kg, sc administered for 3 consecutive days prior CCL4 challenge measured 12 to 24 hrs post challenge by Western blot method relative to control
Mus musculus [8] = experiment: Hepatoprotective activity in CCL4-induced FVB mouse assessed as decrease in liver macrophages at 2.5 to 10 mg/kg, sc administered for 3 consecutive days prior CCL4 challenge measured 24 hrs post challenge by immunofluorescence staining method relative to control
Mus musculus [9] = experiment: Hepatoprotective activity in sc dosed CCL4-induced FVB mouse assessed as reduction in liver necrosis at administered for 3 consecutive days prior CCL4 challenge measured 24 hrs post challenge by hematoxylin/eosin-staining method relative to control
Mus musculus [10] = experiment: Hepatoprotective activity in CCL4-induced FVB mouse assessed as restoration of Cu/Zn SOD expression at 2.5 to 10 mg/kg, sc administered for 3 consecutive days prior CCL4 challenge measured 12 to 24 hrs post challenge by Western blot method relative to control
Mus musculus [11] = experiment: Hepatoprotective activity in CCL4-induced FVB mouse assessed as increase in CYP2E1 p-nitrophenol activity at 2.5 to 10 mg/kg, sc administered for 3 consecutive days prior CCL4 challenge measured 12 to 24 hrs post challenge relative to control
Mus musculus [12] = experiment: Hepatoprotective activity in CCL4-induced FVB mouse assessed as reduction in serum MDA level at 2.5 to 10 mg/kg, sc administered for 3 consecutive days prior CCL4 challenge measured 12 to 24 hrs post challenge relative to control
Mus musculus [13] = experiment: Hepatoprotective activity in CCL4-induced FVB mouse assessed as decrease in serum TNFalpha level at 2.5 to 10 mg/kg, sc administered for 3 consecutive days prior CCL4 challenge measured 12 to 24 hrs post challenge by ELISA relative to control
Mus musculus [14] = experiment: Hepatoprotective activity in CCL4-induced FVB mouse assessed as reduction in ROS level at 10 mg/kg, sc administered for 3 consecutive days prior CCL4 challenge measured 12 to 24 hrs post challenge by DHE-labeling method relative to control; set-up: dose 10 mg/kg
Mus musculus [15] = experiment: Hepatoprotective activity in CCL4-induced FVB mouse assessed as decrease in iNOS expression at 2.5 to 10 mg/kg, sc administered for 3 consecutive days prior CCL4 challenge measured 12 to 24 hrs post challenge by Western blot method relative to control
Mus musculus [16] = experiment: Hepatoprotective activity in CCL4-induced FVB mouse assessed as decrease in cleaved caspase3-positive hepatocytes at 2.5 to 10 mg/kg, sc administered for 3 consecutive days prior CCL4 challenge measured 24 hrs post challenge by immunofluorescence staining method relative to control; settings: Hepatocyte

CC1=CC(=O)[C@H](c2c(O)cc(/C=C/c3ccc(O)c(O)c3)oc2=O)[C@@H](c2ccc(O)c(O)c2)O1
Activity (Mus musculus [1]): Active | Activity (Mus musculus [2]): Active | Activity (Mus musculus [3]): Active | Activity (Mus musculus [4]): Active | Activity (Mus musculus [5]): Active | Activity (Mus musculus [6]): inactive | Activity (Mus musculus [7]): Active | Activity (Mus musculus [8]): Active | Activity (Mus musculus [9]): Dose-dependent effect | Activity (Mus musculus [10]): Active | Activity (Mus musculus [11]): Active | Activity (Mus musculus [12]): Active | Activity (Mus musculus [13]): Active | Activity (Mus musculus [14]): Active | Activity (Mus musculus [15]): Active | Activity (Mus musculus [16]): Active
